The record followed here is ChEMBL document CHEMBL1135371, “Synthesis and pharmacology of isoquinuclidine derivatives as 5-HT(3) ligands” (Bioorg Med Chem Lett, 2002).

Usually IC50 stands for the concentration that gives 50% inhibition. Low values mean higher potency, high ones lower potency. The Ki is a dissociation constant, usually derived from enzyme kinetics or from competition with a known ligand. The low end stands for higher affinity, the high end for lower affinity.

The target in assay [1] is T1, D(2) dopamine receptor (Rattus norvegicus, UniProt P61169). In words: Binding affinity towards D2 receptor in rat was evaluated.
The target of assay [2] is T2, Serotonin 3 (5-HT3) receptor (Rattus norvegicus, UniProt P35563+Q9JJ16).
T2 sequence (P35563 whole entry): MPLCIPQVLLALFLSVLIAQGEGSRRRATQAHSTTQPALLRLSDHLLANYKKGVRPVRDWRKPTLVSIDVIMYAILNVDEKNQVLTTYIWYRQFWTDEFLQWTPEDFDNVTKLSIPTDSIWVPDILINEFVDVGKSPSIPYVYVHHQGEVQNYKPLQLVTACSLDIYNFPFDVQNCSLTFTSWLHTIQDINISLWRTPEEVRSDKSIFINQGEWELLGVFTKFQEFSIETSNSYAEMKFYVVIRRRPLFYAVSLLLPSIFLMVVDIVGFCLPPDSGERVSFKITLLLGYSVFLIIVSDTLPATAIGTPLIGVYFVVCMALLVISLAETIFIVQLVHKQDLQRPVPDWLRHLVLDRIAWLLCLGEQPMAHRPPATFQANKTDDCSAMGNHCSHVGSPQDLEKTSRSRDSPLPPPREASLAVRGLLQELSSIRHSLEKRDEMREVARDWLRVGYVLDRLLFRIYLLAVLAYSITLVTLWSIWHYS
T2 sequence (Q9JJ16 whole entry): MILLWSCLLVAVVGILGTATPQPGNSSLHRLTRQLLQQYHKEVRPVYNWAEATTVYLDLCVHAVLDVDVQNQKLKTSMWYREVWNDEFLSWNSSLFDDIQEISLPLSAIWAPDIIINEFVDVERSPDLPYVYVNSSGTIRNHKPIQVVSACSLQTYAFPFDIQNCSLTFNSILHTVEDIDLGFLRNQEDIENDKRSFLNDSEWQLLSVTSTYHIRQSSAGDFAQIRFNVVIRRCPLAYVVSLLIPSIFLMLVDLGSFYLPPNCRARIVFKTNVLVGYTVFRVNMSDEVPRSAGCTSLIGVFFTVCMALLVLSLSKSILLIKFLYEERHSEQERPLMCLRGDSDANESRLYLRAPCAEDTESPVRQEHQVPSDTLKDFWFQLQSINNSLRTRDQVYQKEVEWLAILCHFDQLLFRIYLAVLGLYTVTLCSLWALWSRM
Put plainly: Binding affinity towards 5-HT3 receptor in rat was evaluated.

The target in assay [3] is T3, 5-hydroxytryptamine receptor 4 (Cavia porcellus, UniProt O70528). Put plainly: Binding affinity towards 5-hydroxytryptamine 4 receptor in striatum membranes of guinea-pig brain was evaluated. Format: cell membranes, Membrane.
For assay [4], the target named is T1, D(2) dopamine receptor. In words: Binding affinity towards Dopamine receptor D2 in rat was evaluated.
The target in assay [5] is T3, 5-hydroxytryptamine receptor 4. In words: Binding affinity towards 5-HT4 receptor in striatum membranes of guinea-pig brain was evaluated. Format: cell membranes, Membrane.
For assay [6], the target named is T2, Serotonin 3 (5-HT3) receptor. Put plainly: Binding affinity towards rat 5-hydroxytryptamine 3 receptor was evaluated. Format: protein-complex assay.

T3 sequence (O70528 whole entry): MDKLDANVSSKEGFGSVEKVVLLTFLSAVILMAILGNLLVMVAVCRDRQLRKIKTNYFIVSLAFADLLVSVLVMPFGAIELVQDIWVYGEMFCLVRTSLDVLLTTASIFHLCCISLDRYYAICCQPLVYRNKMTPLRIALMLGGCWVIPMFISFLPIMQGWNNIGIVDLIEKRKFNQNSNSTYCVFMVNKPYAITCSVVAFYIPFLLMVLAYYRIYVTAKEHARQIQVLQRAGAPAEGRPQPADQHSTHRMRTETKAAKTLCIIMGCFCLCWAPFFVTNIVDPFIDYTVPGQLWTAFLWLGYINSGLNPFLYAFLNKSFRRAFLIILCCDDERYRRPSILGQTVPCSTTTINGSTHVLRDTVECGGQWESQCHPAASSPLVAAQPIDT
T1 sequence (P61169 whole entry): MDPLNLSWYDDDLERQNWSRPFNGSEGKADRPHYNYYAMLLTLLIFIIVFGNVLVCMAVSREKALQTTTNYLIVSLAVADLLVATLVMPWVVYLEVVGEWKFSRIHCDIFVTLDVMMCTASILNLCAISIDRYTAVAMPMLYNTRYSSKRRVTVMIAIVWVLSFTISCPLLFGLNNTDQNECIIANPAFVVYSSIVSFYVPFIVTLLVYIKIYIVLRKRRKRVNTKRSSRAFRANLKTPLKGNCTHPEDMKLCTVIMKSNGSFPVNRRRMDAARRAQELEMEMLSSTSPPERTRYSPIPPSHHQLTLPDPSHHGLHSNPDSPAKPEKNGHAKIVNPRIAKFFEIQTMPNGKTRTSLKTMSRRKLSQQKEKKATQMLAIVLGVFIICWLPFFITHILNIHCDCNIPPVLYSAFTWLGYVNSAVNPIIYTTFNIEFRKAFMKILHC

As to `COc1cc(N)c(Cl)cc1C(=O)NC1CC2CCC1N(C)C2` (centres undefined), the concentration for half-maximal inhibition (IC50) at D(2) dopamine receptor [1] is 1000 nM; in assay [2], more than 1000 nM; in assay [3], 1000 nM; at D(2) dopamine receptor [4], more than 1000 nM; in assay [5], more than 1000 nM. In assay [2], this molecule gave a Ki of 327 nM.

Regarding `COc1cc(N)c(Cl)cc1C(=O)OC1CC2CCC1CN2C` (stereo in doubt; anti), the Ki in assay [2] turned out to be 5.19 nM; in assay [3], 82.6 nM. On D(2) dopamine receptor [4], this molecule yielded an IC50 of more than 1000 nM.

`COc1cc(N)c(Cl)cc1C(=O)OC1CC2CCC1N(C)C2` (stereo in doubt; anti) returned a Ki in assay [2] of 13.8 nM. Further, the IC50 (in assay [3]; at D(2) dopamine receptor [4]) was more than 1000 nM in each case.

As to `COc1cc(N)c(Cl)cc1C(=O)NC1CC2CCC1CN2C` (stereo in doubt; anti), the IC50 in assay [2] was 17300 nM; in assay [3], more than 1000 nM. The Ki on D(2) dopamine receptor [4] turned out to be 130 nM.

Turning to `COc1cc(N)c(Cl)cc1C(=O)OC1CC2CCC1CN2C` (stereo in doubt; syn), the half-maximal inhibitory concentration (IC50) at D(2) dopamine receptor [1] was more than 1000 nM. The Ki in assay [2] worked out at 11.2 nM; in assay [5], 240 nM.

With `COc1cc(N)c(Cl)cc1C(=O)OC1CC2CCC1N(C)C2` (stereo in doubt; syn), the IC50 (at D(2) dopamine receptor [1]; in assay [5]) was more than 1000 nM throughout. The molecule further gave a Ki in assay [2] of 192 nM.

`COc1cc(N)c(Cl)cc1C(=O)NC1CC2CCC1CN2C` (stereo in doubt; syn) yielded an inhibitory constant (Ki) at D(2) dopamine receptor [1] of 842 nM. For the same molecule, the IC50 in assay [2] and in assay [5] was 1000 nM in each case.

As to `CN1C2CCCC1CC(NC(=O)c1nn(C)c3ccccc13)C2` (centres undefined) [GRANISETRON], the IC50 (at D(2) dopamine receptor [1]; in assay [5]) was more than 1000 nM throughout.

For `CN1[C@@H]2CC[C@H]1C[C@@H](OC(=O)c1c[nH]c3ccccc13)C2` [TROPISETRON], the inhibition constant Ki in assay [6] is 1.55 nM; in assay [3] it was 125 nM. This molecule also had an IC50 at D(2) dopamine receptor [4] of more than 1000 nM.
